# Laboratory results published in patent publication US20210154170A1, “METHODS OF TREATING NEUROPATHIC PAIN” (Biogen MA Inc., priority 2018, published 2021).
# Tested on: healthy participants
# Test: Phase 1 cross-over study, ambulatory blood pressure monitoring (ABPM)
# Format: in vivo, human
# Details: for DBP: Change >10 and absolute value >80 mmHg, observations / SBP: Change >10 and absolute value >130 mmHg, observations: 300-400 mg repeat dose; for BIIB074-Placebo difference in change of 24 h average DBP / BIIB074-Placebo difference in change of 24 h average SBP / LS Mean change in 24 h average DBP from baseline / LS Mean change in 24 h average SBP from baseline: outpatient
# Protocol: This was a Phase 1, randomized, double-blind, placebo-controlled, repeat dose, 2-period cross-over study to investigate the effect of BIIB074 300-400 mg bid on ambulatory blood pressure (ABP) in healthy participants (FIG. 2). The study comprised: screening (to occur a maximum of 30 days before the first baseline assessment); two 36-day treatment periods, each preceded by a baseline visit and separated by a 7-day washout (to minimize possible carry over effects); and a follow-up period of 7-14 days after last dose. Prior to this study, no females had received BIIB074; for this reason, a single dose BIIB074 session at the dose level of 400 mg was also conducted in female participants one week prior to the period 1 baseline visit. Following this session, some participants were predicted to exceed the predefined PK limit (area under the plasma concentration-time curve [AUC] 97 μg·h/mL) when receiving 400 mg bid at steady state. Therefore, in the subsequent phases of the study, all female participants received a lower dose of 300 mg bid (males received 400 mg bid).
# Participants were assigned to treatment sequences in accordance with a randomization schedule generated by Discovery Biometrics, prior to the start of the study, using validated software. Study treatment was BIIB074 400 mg bid for males/300 mg bid for females, or placebo, for 36 days. Prior to dosing, volunteers were randomized into one of the following treatment sequences, BIIB074 (period 1):placebo (period 2) or placebo (period 1):BIIB074 (period 2), and more specifically AB and BA if male and CAB and CBA if female, where A=placebo, B=BIIB074 400 mg bid in males and 300 mg bid in females, C=BIIB074 400 mg single dose in females. Randomization numbers were assigned by the site ensuring there was a balance of sequences (AB/BA and CAB/CBA) in each group. Periods 1 and 2 were double-masked to patients and study personnel.
# The primary endpoint was change in 24 h average SBP and DBP from baseline to day 36 as determined by ABPM. Secondary outcome measures included: change in 24 h average SBP and DBP from baseline to days 4 and 15; change in average SBP and DBP within a 12 h dosing interval from baseline to days 14 and 35 (inpatient); change in 24 h average ambulatory heart rate from baseline to days 4, 15 and 36; proportion of participants whose 24 h SBP and DBP increased by <5, 5-9, 10-14, 15-19, and >20 mm Hg compared with baseline; PK parameters of BIIB074 following a single oral dose in healthy female participants, and following repeated oral doses given twice daily to healthy male and female participants; PK/pharmacodynamic (PD) analyses to examine the correlation between ABP and plasma levels and/or metrics of the systemic exposure of BIIB074.
# ABP was collected over 24 hours on an outpatient basis at baseline and at days 4, 15 and 36, and over 12 hours on an inpatient basis at baseline, and at days 14 and 35. The ABPM device was placed on the non-dominant arm (except in clinical situations that prohibited measuring BP in the non-dominant arm). BP and heart rate were measured every 15 minutes.
# Non-inferiority was based on the one-sided 95% confidence interval (CI) for BIIB074-placebo excluding an effect of >5 mmHg in SBP or DBP. It was planned to recruit approximately 60 participants in order to obtain a minimum of 48 evaluable for ABPM during the repeat dose phase, for at least 90% power, assuming a within-subject standard deviation (SDw) of 8.21 mmHg.
# ABPM data were analyzed using a repeated measures mixed effects model, whereby fixed effects were treatment, day, treatment*day, period, average baseline*day, period adjusted baseline*day, sex and treatment*sex; random effect was subject; and repeated effect was day. All summary statistics were carried out using SAS 8.02 for UNIX running under the Harmonisation of Analysis and Reporting Program (HARP) environment. […]
structure (smiles),measurement,setting,value
"Cl.NC(=O)[C@@H]1CC[C@H](c2ccc(OCc3ccccc3F)cc2)N1 [Example 1, (5R)-5-(4-{[(2-Fluorophenyl)methyl]oxy}phenyl)-L-prolinamide hydrochloride]","DBP: Change >10 and absolute value >80 mmHg, observations","Day 4, outpatient 24 h",137 (10.6%) n (%)
same,"SBP: Change >10 and absolute value >130 mmHg, observations","Day 4, outpatient 24 h",116 (9.0%) n (%)
same,"DBP: Change >10 and absolute value >80 mmHg, observations","Day 15, outpatient 24 h",109 (8.3%) n (%)
same,"SBP: Change >10 and absolute value >130 mmHg, observations","Day 15, outpatient 24 h",95 (7.2%) n (%)
same,"DBP: Change >10 and absolute value >80 mmHg, observations","Day 36, outpatient 24 h",86 (6.9%) n (%)
same,"SBP: Change >10 and absolute value >130 mmHg, observations","Day 36, outpatient 24 h",63 (5.0%) n (%)
same,Slope of linear relationship DBP vs observed plasma concentration,"PK/PD analysis, inpatient ABPM",approximately 0.00077±0.00012 mmHg/(ng/mL)
same,Slope of linear relationship SBP vs observed plasma concentration,"PK/PD analysis, inpatient ABPM",~0.00056±0.00013 mmHg/(ng/mL)
same,Average increase of SBP with plasma concentration,"PK/PD analysis, over the 24 h interval",< 2 mmHg
same,Upper bound of one-sided 95% CI for BIIB074-placebo,"SBP on day 4, outpatient",~2.2 mmHg
same,"Inpatient 12 h ABPM, difference to placebo",after 36 days of therapy,no significant differences
same,Increase in outpatient 24 h SBP or DBP,"day 36, distribution of individual changes",no evidence to suggest a significant increase
same,Observations with DBP increase >10 mmHg and absolute value >80 mmHg,"day 36, outpatient",6.9%
same,Observations with SBP increase >10 mmHg and absolute value >130 mmHg,"day 36, outpatient",5.0%
same,Observations with increase from baseline in SBP>30 mmHg,"day 36, outpatient 24 h (0%)",4/1249
same,Observations with increase from baseline in DBP>20 mmHg,"day 36, outpatient 24 h (3%)",35/1249
same,"Increase in change from baseline for SBP, DBP, and heart rate","inpatient ABPM, days 14 and 35",2.0-2.5 mmHg/bpm
same,Upper bound of one-sided 95% CI for BIIB074-placebo,"majority of SBP and DBP comparisons on days 4, 15, 36",< 2 mmHg
same,"Non-inferiority to placebo, outpatient 24 h SBP and DBP",one-sided 95% CI excluding effect >5 mmHg,Non-inferiority of BIIB074 compared to placebo was demonstrated
same,BIIB074-Placebo difference in change of 24 h average DBP,Day 4,0.789 mmHg
same,BIIB074-Placebo difference in change of 24 h average SBP,Day 4,1.006 mmHg
same,LS Mean change in 24 h average DBP from baseline,"Day 4, 300-400 mg bid",1.856 mmHg
same,LS Mean change in 24 h average SBP from baseline,"Day 4, 300-400 mg bid",2.372 mmHg
same,BIIB074-Placebo difference in change of 24 h average DBP,Day 15,0.645 mmHg
same,BIIB074-Placebo difference in change of 24 h average SBP,Day 15,0.294 mmHg
same,LS Mean change in 24 h average DBP from baseline,"Day 15, 300-400 mg bid",0.907 mmHg
same,LS Mean change in 24 h average SBP from baseline,"Day 15, 300-400 mg bid",0.915 mmHg
same,BIIB074-Placebo difference in change of 24 h average DBP,Day 36,0.287 mmHg
same,BIIB074-Placebo difference in change of 24 h average SBP,Day 36,−0.507 mmHg
same,LS Mean change in 24 h average DBP from baseline,"Day 36, 300-400 mg bid",0.201 mmHg
same,LS Mean change in 24 h average SBP from baseline,"Day 36, 300-400 mg bid",−0.327 mmHg
same,"Change in SBP and DBP, outpatient and inpatient ABPM",repeat doses for 36 days,lack of clinically relevant change
